# Tests used:
# [1] = biological target: T1, DNA topoisomerase 1 of purified calf thymus (Bos taurus, UniProt F1MN93); assay: Relaxation activity test of DNA induced by topoisomerase 1; format: biochemical; conditions: supercoiled pUC19, 15 minutes at 37° C.
# T1 construct: DNA topoisomerase 1 of purified calf thymus (Gibco-BRL, Paisley, United Kingdom); purchased Gibco-BRL, Paisley, United Kingdom; host or cells: calf thymus tissue
# T1 sequence (F1MN93 1-767): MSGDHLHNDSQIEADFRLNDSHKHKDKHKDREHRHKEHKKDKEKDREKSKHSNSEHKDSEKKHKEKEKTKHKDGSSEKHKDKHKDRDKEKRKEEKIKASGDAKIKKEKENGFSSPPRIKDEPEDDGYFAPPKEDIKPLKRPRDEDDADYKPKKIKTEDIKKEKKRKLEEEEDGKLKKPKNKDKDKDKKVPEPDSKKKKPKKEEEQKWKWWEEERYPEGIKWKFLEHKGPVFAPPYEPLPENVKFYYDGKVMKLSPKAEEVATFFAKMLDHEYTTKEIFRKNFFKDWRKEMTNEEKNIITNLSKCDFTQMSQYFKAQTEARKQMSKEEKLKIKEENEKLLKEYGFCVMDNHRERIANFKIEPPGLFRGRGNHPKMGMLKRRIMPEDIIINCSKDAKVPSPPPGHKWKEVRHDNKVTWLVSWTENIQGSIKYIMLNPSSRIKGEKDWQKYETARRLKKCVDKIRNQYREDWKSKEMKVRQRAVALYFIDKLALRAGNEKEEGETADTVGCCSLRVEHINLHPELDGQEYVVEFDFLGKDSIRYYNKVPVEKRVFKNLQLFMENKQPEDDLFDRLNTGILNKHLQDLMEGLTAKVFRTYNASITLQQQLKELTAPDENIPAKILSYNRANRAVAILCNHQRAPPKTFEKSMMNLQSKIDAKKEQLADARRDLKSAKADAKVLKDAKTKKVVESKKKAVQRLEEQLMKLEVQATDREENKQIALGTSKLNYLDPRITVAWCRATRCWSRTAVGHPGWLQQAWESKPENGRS
# Method: 1. Relaxation Activity Test of DNA Induced by Topoisomerase 1
# All the reactions are carried out in a 20 μl reaction buffer constituted by 50 mM of Tris-HCl (pH 7.5), 50 mM of KCl, 0.5 mM of dithiothreitol, 10 mM of MgCl2, 0.1 mM of ethyldiamine tetraacetic acid (EDTA), 30 μg/ml of bovine serum albumin and 300 ng of supercoiled pUC19 (Pharmacia Biotech, Orsay, France) with or without the compounds to be tested at defined concentrations. All the compounds to be tested are initially dissolved in dimethylsulphoxide (DMSO) at 50 mM, the other dilutions being carried out with distilled water. […] The reaction is initiated by the addition of a unit of DNA topoisomerase 1 of purified calf thymus (Gibco-BRL, Paisley, United Kingdom) and is carried out for 15 minutes at 37° C. The reactions are stopped by the addition of 3 μl of a mixture containing 1% dodecyl sodium sulphate at 1%, 20 mM of EDTA and 500 μg/ml of K proteinase (Boehringer Mannheim, Meylan, France). After an additional incubation period of 30 minutes at 37° C., 2 μl of a loading buffer containing 10 mM of Na2HPO4, 0.3% of bromophenol blue et 16% Ficoll are added to samples which are subjected to electrophoresis in agarose gels at 1.2% at 1 V/cm for 20 hours in a buffer containing 36 mM of Tris-HCl at pH 7.8, 30 mM of Na2HPO4, 1 mM of EDTA and 2 μg/ml of chloroquine. The gels are stained with 2 μg/ml of ethidium bromide, photographed under UV light at 312 nm with a camera and the fluorescent intensity is measured with a bioProfil camera (Vilber Lournat, Lyon, France) with a view to determining the percentage of relaxed DNA. Each experiment is carried out at least three times in duplicate.
# In each experiment, the supercoiled plasmid DNA is incubated alone or with topoisomerase 1. The reaction is completed within 15 minutes. For each compound to be tested or control, the supercoiled plasmid DNA is incubated in the presence of 500 μM of compound to be tested with enzyme or without enzyme plus the compound to be tested, at concentrations of 10 μM, 100 μM, 200 μM and 500 μM.
# [2] = test system: Adenocarcinoma HT29 cells from the human colon; assay: Adenocarcinoma HT29 cell proliferation, WST1 (compounds in DMA); format: cell-based; conditions: Homo sapiens, HT-29, 72 hours, final DMA 0.1% (v/v)
# Method: c. Adenocarcinoma HT29 cells from the human colon are cultured in a single layer at 37° in a humidified atmosphere containing 95% of air and 5% of CO2, in a modified essential Earle's medium at 4.5 g/l (Gibco, Paisley, United Kingdom); completed with 10% of inactivated foetal calf serum, 2 mM of glutamine, and 50 μg/ml of gentamycin (Gibco, Paisley, United Kingdom).
# Approximately 2000 cells are seeded with the culture medium above in the wells of a microplate (96 wells, flat-bottomed) and incubated for 24 hours. Solutions in N,N-dimethyl-acetamide (DMA) of each of the examples of the invention, diluted in the culture medium so that the final concentration of DMA is 0.1% (v/v), are added to the plate cultures in order to obtain final concentration ranges from 1×10^−13 to 1×10^−5 M, and the cells are incubated for 72 hours.
# The WST1 staining reagent, (Boehringer Mannheim, Germany) is then added to each well at a final concentration of 9%, and the cells are incubated for 2 hours at 37° C. This stage allows the mitochondrial deshydrogenase of the living cells to convert WST1 orange tetrazolium salt into crimson formazan. The resulting stained solutions are quantified by dual-beam detection ([…]) using a multi-cuvette scanning spectrophotometer.
# The results shown in the following table III C) are expressed in terms of inhibitory concentration at 50% (IC50, in nM), accompanied by a confidence interval.
smiles,measurement,setting,value
"CCOC(=O)CC(O)(CC)c1cc2n(c(=O)c1CO)Cc1cc3ccccc3nc1-2 (stereo not shown) [Example 2, ethyl 3-hydroxy-3-[8-(hydroxymethyl)-9-oxo-9,11-dihydroindolizino [1,2-b]quinolin-7-yl]pentanoate]",PERCENTAGE OF RELAXED DNA,[1]; 10 μM compound,97.9%
same,PERCENTAGE OF RELAXED DNA,[1]; 100 μM compound,78.3%
same,PERCENTAGE OF RELAXED DNA,[1]; 200 μM compound,73.2%
same,PERCENTAGE OF RELAXED DNA,[1]; 500 μM compound,51.1%
"CCN1COc2ccc3nc4c(cc3c2C1)Cn1c-4cc2c(c1=O)COC(=O)CC2(O)CC (stereo not shown) [Example 76, 2,9-diethyl-9-hydroxy-1,2,3,9,10,16-hexahydro-13H-[1,3]oxazino[5,6-f]oxepino[3′,4′:6,7]indolizino[1,2-b]quinoline-11,14-dione]",PERCENTAGE OF RELAXED DNA,[1]; 10 μM compound,79.7%
same,PERCENTAGE OF RELAXED DNA,[1]; 100 μM compound,33.5%
same,PERCENTAGE OF RELAXED DNA,[1]; 200 μM compound,23.2%
"CCC1(O)CC(=O)OCc2c1cc1n(c2=O)Cc2cc3c4c(ccc3nc2-1)OCN(C)C4 (stereo not shown) [Example 77, 9-ethyl-9-hydroxy-2-methyl-1,2,3,9,10,16-hexahydro-13H-[1,3]oxazino[5,6f]oxepino[3′,4′:6,7]indolizino[1,2-b]quinoline-11,14-dione]",PERCENTAGE OF RELAXED DNA,[1]; 10 μM compound,86.2%
same,PERCENTAGE OF RELAXED DNA,[1]; 100 μM compound,35.1%
same,PERCENTAGE OF RELAXED DNA,[1]; 200 μM compound,32.1%
"CCC1(O)CC(=O)OCc2c1cc1n(c2=O)Cc2cc3c4c(ccc3nc2-1)OCN(Cc1ccccc1)C4 (stereo not shown) [Example 78, 2-benzyl-9-ethyl-9-hydroxy-1,2,3,9,10,16-hexahydro-13H-[1,3]oxazino[5,6f]oxepino[3′,4′:6,7]indolizino[1,2-b]quinoline-11,14-dione]",PERCENTAGE OF RELAXED DNA,[1]; 10 μM compound,56.2%
same,PERCENTAGE OF RELAXED DNA,[1]; 100 μM compound,28.0%
same,PERCENTAGE OF RELAXED DNA,[1]; 200 μM compound,24.2%
"CCC1(O)CC(=O)OCc2c1cc1n(c2=O)Cc2cc3c4c(c(F)cc3nc2-1)OCN(Cc1ccccc1)C4 (stereo not shown) [Example 79, 2-benzyl-9-ethyl-5-fluoro-9-hydroxy-1,2,3,9,10,16-hexahydro-13H-[1,3]oxazino[5,6f]oxepino[3′,4′:6,7]indolizino[1,2-b]quinoline-11,14-dione]",PERCENTAGE OF RELAXED DNA,[1]; 10 μM compound,55.6%
same,PERCENTAGE OF RELAXED DNA,[1]; 100 μM compound,38.9%
same,PERCENTAGE OF RELAXED DNA,[1]; 200 μM compound,30.0%
"CC[C@@]1(O)CC(=O)OCc2c1cc1n(c2=O)Cc2cc3ccc(F)cc3nc2-1 [Example 84, (5R)-5-ethyl-9-fluoro-5-hydroxy-4,5,13,15-tetrahydro-1H,3H-oxepino[3′,4′:6,7]indolizino[1,2-b]quinoline-3,15-dione]",IC50,[2],2.5 nM
"CCCCc1c2c(nc3ccccc13)-c1cc3c(c(=O)n1C2)COC(=O)C[C@]3(O)CC [Example 87, (5R)-12-butyl-5-ethyl-5-hydroxy-4,5,13,15-tetrahydro-1H,3H-oxepino[3′,4′:6,7]indolizino[1,2-b]quinoline-3,15-dione]",IC50,[2],16 nM
"CCc1c2c(nc3ccccc13)-c1cc3c(c(=O)n1C2)COC(=O)C[C@]3(O)CC [Example 88, (5R)-5,12-diethyl-5-hydroxy-4,5,13,15-tetrahydro-1H,3H-oxepino[3′,4′:6,7]indolizino[1,2-b]quinoline-3,15-dione]",IC50,[2],12 nM
"CC[C@@]1(O)CC(=O)OCc2c1cc1n(c2=O)Cc2c-1nc1ccccc1c2-c1ccccc1 [Example 89, (5R)-5-ethyl-5-hydroxy-12-phenyl-4,5,13,15-tetrahydro-1H,3H-oxepino[3′,4′:6,7]indolizino[1,2-b]quinoline-3,15-dione]",IC50,[2],13 nM
"CC[C@@]1(O)CC(=O)OCc2c1cc1n(c2=O)Cc2c-1nc1ccccc1c2-c1ccc(C)cc1 [Example 91, (5R)-5-ethyl-5-hydroxy-12-(4-methylphenyl)-4,5,13,15-tetrahydro-1H,3H-oxepino[3′,4′:6,7]indolizino[1,2-b]quinoline-3,15-dione]",IC50,[2],11 nM
"CC[C@@]1(O)CC(=O)OCc2c1cc1n(c2=O)Cc2c-1nc1cc(F)c(F)cc1c2-c1ccccc1 [Example 93, (5R)-5-ethyl-9,10-difluoro-5-hydroxy-12-phenyl-4,5,13,15-tetrahydro-1H,3H-oxepino[3′,4′:6,7]indolizino[1,2-b]quinoline-3,15-dione]",IC50,[2],12 nM
"CCCCc1c2c(nc3cc(F)c(F)cc13)-c1cc3c(c(=O)n1C2)COC(=O)C[C@]3(O)CC [Example 95, (5R)-12-butyl-5-ethyl-9,10-difluoro-5-hydroxy-4,5,13,15-tetrahydro-1H,3H-oxepino[3′,4′:6,7]indolizino[1,2-b]quinoline-3,15-dione]",IC50,[2],8.5 nM
"CCCc1c2c(nc3cc(F)c(F)cc13)-c1cc3c(c(=O)n1C2)COC(=O)C[C@]3(O)CC [Example 97, (5R)-5-ethyl-9,10-difluoro-5-hydroxy-12-propyl-4,5,13,15-tetrahydro-1H,3H-oxepino[3′,4′:6,7]indolizino[1,2-b]quinoline-3,15-dione]",IC50,[2],11 nM
"CCc1c2c(nc3cc(F)c(F)cc13)-c1cc3c(c(=O)n1C2)COC(=O)C[C@]3(O)CC [Example 98, (5R)-5,12-diethyl-9,10-difluoro-5-hydroxy-4,5,13,15-tetrahydro-1H,3H-oxepino[3′,4′:6,7]indolizino[1,2-b]quinoline-3,15-dione]",IC50,[2],2.1 nM
"CC[C@@]1(O)CC(=O)OCc2c1cc1n(c2=O)Cc2c-1nc1cc(F)c(F)cc1c2CC[Si](C)(C)C [Example 99, (5R)-5-ethyl-9,10-difluoro-5-hydroxy-1 2-(2-trimethylsilylethyl)-4,5,13,15-tetrahydro-1H,3H-oxepino[3′,4′:6,7]indolizino[1,2-b]quinoline-3,15-dione]",IC50,[2],5 nM
"CC[C@@]1(O)CC(=O)OCc2c1cc1n(c2=O)Cc2cc3c(F)cc(F)cc3nc2-1 [Example 100, (5R)-5-ethyl-9,11-difluoro-5-hydroxy-4,5,13,15-tetrahydro-1H,3H-oxepino[3′,4′:6,7]indolizino[1,2-b]quinoline-3,15-dione]",IC50,[2],2.2 nM
"CCc1c2c(nc3cc(F)cc(F)c13)-c1cc3c(c(=O)n1C2)COC(=O)C[C@]3(O)CC [Example 102, (5R)-5,12-diethyl-9,1 1-difluoro-5-hydroxy-4,5,13,15-tetrahydro-1H,3H-oxepino[3′,4′:6,7]indolizino[1,2-b]quinoline-3,15-dione]",IC50,[2],8 nM
